Results published in patent US20260085315A1, “POLYNUCLEOTIDE COMPOSITIONS AND METHODS FOR TREATMENT OF CANCER” (APTAH BIO, INC., priority 2023, published 2026).
d = 2'-deoxy (DNA); m = 2'-O-methyl

What was measured:
[1] = test system: Human Glioblastoma Cancer (U-87MG) xenograft; assay: Histopathology of tumor samples with scoring; type: in vivo, athymic nude mice; set-up: key: 1: Minimal Fibrosis; 2: Mild Fibrosis; 3: Moderate Fibrosis; 4: Prominent; conditions: individual animals; G3 APT20TTMG, G2 TMZ
From the text: The fixed tissues were processed for routine paraffin embedding followed by sectioning (3-6 micron). The sections were stained with hematoxylin and eosin. The prepared slides were examined under microscope by the study pathologist to record histopathological findings in tumor samples, related to capsule formation, cell type, connective tissue stroma, apoptosis, necrosis, lipid content, nucleus-to-cytoplasmic (N:C) ratio, nuclei mitotic figures, tumor grade, and level of differentiation. Each histopathological finding and tumor volume were assigned a score ranging from 1 to 4 (Table 7). The sum of these scores for each sample was used to infer the tumor aggressiveness.

SH-SY5Y cell line = assay: MTT mitochondrial activity / cell viability; type: cell-based, Human; conditions: any concentration; 24 and 48 hours
Experimental: FIG. 22A-22B illustrates the evaluation of mitochondrial activity in SH-SY5Y cell line after incubation in ASMO1. MTT assay was performed after 24 hours (FIG. 22A) and 48 hours (FIG. 22B) of incubation.

APT20TTMG: engineered polynucleotide ASMO1, 24 nt, SEQ ID NO: 3 gtccactaacctttcaggccagcg; targeting moieties 5′-GTCCA-3′ and 5′-CG-3′, U1 snRNP recruiting moiety (GTCCACTAACCTTTCAGGCCAGCG; sugars from the 5' end m5 d14 m5, all phosphorothioate, methylation of C and T or U not given here)
Score: Necrosis [1]: 4
cell viability (MTT) (SH-SY5Y cell line): no change in cell viability
